Laboratory results taken from PMC4644980, “The FDA-approved natural product dihydroergocristine reduces the production of the Alzheimer’s disease amyloid-β peptides” (Scientific Reports, 2015).

Assays:
[1] = system: γ-secretase (APP-CTF processing) in HEK293 cells; experiment: Western blot of endogenous APP-FL and APP-CTF in HEK293 cells; assay type: cell-based; conditions: 24 h
Experimental: (§3) The levels of β-actin were used as equal loading controls. […] The levels of β-actin served as equal loading controls.
(§4) Western Blot analysis of full-length APP, APP-CTFs, Notch1-NICD and γ-secretase components was carried out according to the procedures described in the Supplementary information[31].

[2] = system: Aβ production in HEK293 cells; experiment: Aβ total ELISA of media from HEK293 cells; assay type: cell-based
Experimental: (§1) The levels of β-actin were used as equal loading controls. […] The Aβ data are expressed as a percentage of the control value and presented as the means ± sd. […] Fibroblast cells from an AD patient carrying the PS1 missense mutation A246E were treated with various compounds, and the levels of APP-FL, APP-CTF and β-actin, as well as Aβ, were measured as described above. The Aβ data are expressed as a percentage of the control value and presented as the means ± sd. (n = 3). […] The levels of β-actin served as equal loading controls. The densitometric quantifications for the Western Blots are shown in Supplementary Fig. S2. For full blots, please see Supplementary Fig. S9.
(§2) Aβ1-x peptides secreted in the cell media were quantitatively measured by ELISA (IBL, Gunma, Japan) according to the standard protocol from the manufacturer. Aβ40 and Aβ42 generated in the C100-Flag γ-secretase assays stopped with 0.5% SDS (final concentration) were quantified with the human Beta Amyloid or [1–42] colorimetric ELISA kit, respectively.

[3] = system: endogenous γ-secretase in fibroblast cells from an AD patient; experiment: Western blot of APP-CTF in fibroblast cells from an AD patient (PS1 A246E); assay type: cell-based, human; conditions: dose series
Experimental: Fibroblast cells from an AD patient carrying the PS1 missense mutation A246E were treated with various compounds, and the levels of APP-FL, APP-CTF and β-actin, as well as Aβ, were measured as described above. […] (n = 3). […] The levels of β-actin served as equal loading controls.
as §4

[4] = system: Aβ production in fibroblast cells from an AD patient; experiment: Aβ total ELISA of media from fibroblast cells from an AD patient (PS1 A246E); assay type: cell-based, human
Experimental: as §1, §2

[5] = system: human Notch1 extracellular truncation (NEXT) cleavage by γ-secretase; experiment: cleavage of human Notch1 NEXT (NICD Western blot) in HEK293 cells; assay type: cell-based
Experimental: as §3, §4

[6] = system: γ-secretase subunits (mNCT, PS1-NTF); experiment: Western blot of γ-secretase subunits in HEK293 or fibroblast cells; assay type: cell-based
Experimental: for 10 min before adding 25 µl of the stop solution. The fluorescence was monitored with a microplate reader (emission at 590 nm after excitation at 560 nm).
Western blot and antibodies
WT HEK293 or fibroblast cells were collected and lysed in 1% Nonidet P-40-HEPES buffer, and equal amounts of proteins [normalized by BCA (Pierce)] were separated by SDS-PAGE onto a 12% Tris-glycine gel, transferred onto a PVDF membrane (Bio-Rad, USA) and further probed with antibody CT15 (for APP/APP-CTFs, 1:2000, […]
(1:1000; Abcam, Cambridge, MA, USA) for PS1-NTF, UD-1 (for Pen-2, 1:500; a gift of Dr. Helena Karlström, Karolinska Institute, Sweden), NCT164 (for NCT, 1:1000; BD Bioscience, Bedford, MA, USA) as well as with an antibody for β-actin (1:2000, Abmart). For the analysis of Notch NICD, cell extracts were separated by SDS-PAGE onto a 10% Tris-glycine gel, transferred onto a PVDF membrane and blotted for NICD with an anti-Notch Ab1744 antibody (for the free N-terminus of NICD, 1:500, Cell Signaling Technology, Beverly, MA, USA).
Samples from in vitro γ-secretase activity assays were run on 16% Tricine-SDS-PAGE gels and transferred onto PVDF to detect Aβ and AICD-Flag with 6E10 (1:1000, Covance, Berkeley, CA, USA) and CT15 antibodies (1:5000, Sigma-Aldrich), […]

γ-secretase = γ-secretase (Homo sapiens, UniProt P49768+Q92542); experiment: cell-based luciferase reporter assay for γ-secretase inhibition (T100 cells); set-up: endogenous in cells; host or cells: T-REx HeLa cells (T100) stably transfected with the substrate C99-Gal4-VP16 and a luciferase reporter; conditions: 24 h, read-out: IC50, inhibition of APP-C99 processing
Experimental: To identify natural product-based bioactive inhibitors of γ-secretase, we screened 417 natural products by using a cell-based luciferase reporter assay for γ-secretase inhibition (T100, see Methods), which we recently developed in TREx HeLa cells according to the methodology described in ref. [17]. […] Thus, this assay is sufficiently sensitive to detect the inhibitory effects of 100 nM DAPT on cellular γ-secretase activity. Additionally, this new cell-based assay tolerated up to 2% DMSO, which is a great advantage when screening inhibitors in a high-throughput format.
T-REx-HeLa cells (T100) stably overexpressing C99-Gal4-VP16 and luciferase were generated according to the method described in refs [17],[30]. For details, see Supplementary Information.
Cell-based γ-secretase assays were performed using the T100 cell line according to the methods detailed in ref. [30] (for details, see Supplementary information). […]
concentrations of substrate at 37 °C for 4 h, after which the enzymatic reactions were stopped by adding 0.5% SDS (final concentration). The samples were analyzed by Western Blot for AICD-Flag or Aβ. […]

C[C@H](NC(=O)Cc1cc(F)cc(F)c1)C(=O)N[C@H](C(=O)OC(C)(C)C)c1ccccc1 [DAPT, N-[N-(3,5-difluorophenylacetyl)-L-alanyl-]-(S)-phenylglycine-t-butyl ester]
accumulation of the carboxy-terminal fragments of APP (APP-CTFs) [1]: dose-dependent accumulation
total Aβ levels [2]: markedly reduced
accumulation of APP-CTFs [3]: dose-dependent accumulation
total Aβ levels [4]: markedly reduced
preference for APP-based versus Notch-based substrate ([5]; HEK293 cells overexpressing hAPP or Notch1-NEXT): showed no preference
production of intracellular human NICD ([5]; HEK293 cells overexpressing human NEXT, 1 μM): completely blocked
assembly and maturation of the protease complex (mNCT, PS1-NTF) [6]: not altered
IC50 (γ-secretase): ~200 nM
